The values that follow come from ChEMBL document CHEMBL2073880, “Heterologous expression of various P-glycoproteins in polarized epithelial cells induces directional transport of small (type 1) and bulky (type 2) cationic drugs” (J Pharmacol Exp Ther, 1998).

Holding throughout (type): functional, cell-based
Data set [1] has as its target T1, ATP-dependent translocase ABCB1 (Homo sapiens, UniProt P08183). Briefly: TP_TRANSPORTER: transepithelial transport (basal to apical) in MDR1-expressing LLC-PK1 cells. To be noted: pig.
The target in data set [2] is T2, ATP-dependent translocase ABCB1 (Mus musculus, UniProt P21447). Description: TP_TRANSPORTER: transepithelial transport (basal to apical) in Mdr1a-expressing LLC-PK1 cells. To be noted: pig.
T2 sequence (P21447 whole entry): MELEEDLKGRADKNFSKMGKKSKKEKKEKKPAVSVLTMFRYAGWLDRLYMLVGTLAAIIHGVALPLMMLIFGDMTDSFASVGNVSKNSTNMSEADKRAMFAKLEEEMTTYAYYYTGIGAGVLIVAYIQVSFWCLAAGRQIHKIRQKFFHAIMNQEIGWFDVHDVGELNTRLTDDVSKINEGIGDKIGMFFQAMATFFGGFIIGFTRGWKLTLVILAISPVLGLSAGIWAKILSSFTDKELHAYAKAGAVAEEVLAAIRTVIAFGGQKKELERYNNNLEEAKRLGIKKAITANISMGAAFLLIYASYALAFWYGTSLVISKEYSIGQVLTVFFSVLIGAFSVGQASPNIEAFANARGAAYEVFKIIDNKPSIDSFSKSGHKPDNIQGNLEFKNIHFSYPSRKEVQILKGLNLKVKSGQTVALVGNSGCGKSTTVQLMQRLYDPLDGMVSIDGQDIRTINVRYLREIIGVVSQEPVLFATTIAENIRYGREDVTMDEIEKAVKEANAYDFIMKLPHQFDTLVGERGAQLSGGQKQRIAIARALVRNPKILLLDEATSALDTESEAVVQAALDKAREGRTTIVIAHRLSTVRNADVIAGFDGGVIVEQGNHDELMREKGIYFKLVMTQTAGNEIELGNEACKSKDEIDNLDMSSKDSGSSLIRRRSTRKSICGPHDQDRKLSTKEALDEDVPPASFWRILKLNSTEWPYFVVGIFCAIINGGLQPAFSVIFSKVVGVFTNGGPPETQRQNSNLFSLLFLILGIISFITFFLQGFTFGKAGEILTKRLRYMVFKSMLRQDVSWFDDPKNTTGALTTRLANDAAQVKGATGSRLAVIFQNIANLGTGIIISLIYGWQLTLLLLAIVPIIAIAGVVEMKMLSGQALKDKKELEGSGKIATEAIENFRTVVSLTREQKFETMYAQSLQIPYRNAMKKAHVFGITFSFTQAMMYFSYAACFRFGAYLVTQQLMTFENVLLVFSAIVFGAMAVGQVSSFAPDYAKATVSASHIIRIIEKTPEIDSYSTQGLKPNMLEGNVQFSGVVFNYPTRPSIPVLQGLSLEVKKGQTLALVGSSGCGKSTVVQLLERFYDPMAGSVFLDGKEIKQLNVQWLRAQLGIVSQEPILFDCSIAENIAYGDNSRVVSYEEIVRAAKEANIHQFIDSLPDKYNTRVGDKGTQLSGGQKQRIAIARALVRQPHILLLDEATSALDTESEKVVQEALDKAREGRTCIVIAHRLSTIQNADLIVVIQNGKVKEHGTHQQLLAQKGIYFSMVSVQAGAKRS
Data set [3] concerns the target T3, ATP-dependent translocase ABCB1 (Mus musculus, UniProt P06795). Description: TP_TRANSPORTER: transepithelial transport (basal to apical) in Mdr1b-expressing LLC-PK1 cells. To be noted: pig.
Data set [4] has as its target T3, ATP-dependent translocase ABCB1. Description: TP_TRANSPORTER: inhibition of TBuMA transepithelial transport (basal to apical)(TBuMA: 10 uM, Vinblastine: 2 uM) in Mdr1b-expressing LLC-PK1 cells. To be noted: pig, llc-pk1, 2 µM.
Data set [5] addresses T2, ATP-dependent translocase ABCB1. Description: TP_TRANSPORTER: inhibition of TBuMA transepithelial transport (basal to apical)(TBuMA: 10 uM, Vinblastine: 2 uM) in Mdr1a-expressing LLC-PK1 cells. To be noted: pig, llc-pk1, 2 µM.
Data set [6] deals with T1, ATP-dependent translocase ABCB1. Description: TP_TRANSPORTER: inhibition of TBuMA transepithelial transport (basal to apical)(TBuMA: 10 uM, Vinblastine: 2 uM) in MDR1-expressing LLC-PK1 cells. The conditions noted are these: pig, llc-pk1, 2 µM.

T3 sequence (P06795 whole entry): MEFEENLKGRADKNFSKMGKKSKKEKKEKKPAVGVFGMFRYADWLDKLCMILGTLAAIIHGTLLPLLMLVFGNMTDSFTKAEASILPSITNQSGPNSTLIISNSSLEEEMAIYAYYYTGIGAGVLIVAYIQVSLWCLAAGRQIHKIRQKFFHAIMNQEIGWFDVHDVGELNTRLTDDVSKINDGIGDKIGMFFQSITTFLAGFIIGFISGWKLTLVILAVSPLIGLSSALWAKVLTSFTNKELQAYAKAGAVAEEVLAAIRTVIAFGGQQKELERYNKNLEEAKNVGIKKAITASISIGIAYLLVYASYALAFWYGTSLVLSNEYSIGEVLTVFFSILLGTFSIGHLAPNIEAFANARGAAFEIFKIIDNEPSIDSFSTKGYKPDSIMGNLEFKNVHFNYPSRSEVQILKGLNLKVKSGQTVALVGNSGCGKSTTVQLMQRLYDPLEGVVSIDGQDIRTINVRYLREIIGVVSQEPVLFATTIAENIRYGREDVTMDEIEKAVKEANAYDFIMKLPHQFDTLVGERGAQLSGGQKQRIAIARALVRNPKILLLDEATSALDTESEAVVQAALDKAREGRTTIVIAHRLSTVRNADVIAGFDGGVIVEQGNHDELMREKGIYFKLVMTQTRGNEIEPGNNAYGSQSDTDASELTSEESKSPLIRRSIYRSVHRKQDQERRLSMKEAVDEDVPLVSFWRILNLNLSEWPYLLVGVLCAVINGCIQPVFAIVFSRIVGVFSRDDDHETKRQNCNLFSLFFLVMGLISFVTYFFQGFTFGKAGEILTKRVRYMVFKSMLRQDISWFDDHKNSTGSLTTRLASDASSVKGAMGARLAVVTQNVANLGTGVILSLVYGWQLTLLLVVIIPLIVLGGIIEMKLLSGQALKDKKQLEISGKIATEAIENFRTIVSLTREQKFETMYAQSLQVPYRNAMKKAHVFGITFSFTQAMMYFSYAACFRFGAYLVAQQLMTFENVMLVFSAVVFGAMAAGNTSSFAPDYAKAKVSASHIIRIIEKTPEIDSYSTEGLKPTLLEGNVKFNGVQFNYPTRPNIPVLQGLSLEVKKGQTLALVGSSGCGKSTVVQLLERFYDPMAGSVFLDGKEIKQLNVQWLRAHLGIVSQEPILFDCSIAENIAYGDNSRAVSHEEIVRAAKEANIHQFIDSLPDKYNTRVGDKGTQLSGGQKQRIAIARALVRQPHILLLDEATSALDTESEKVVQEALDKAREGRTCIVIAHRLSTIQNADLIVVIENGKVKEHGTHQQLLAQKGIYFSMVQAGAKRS
T1 sequence (P08183 whole entry): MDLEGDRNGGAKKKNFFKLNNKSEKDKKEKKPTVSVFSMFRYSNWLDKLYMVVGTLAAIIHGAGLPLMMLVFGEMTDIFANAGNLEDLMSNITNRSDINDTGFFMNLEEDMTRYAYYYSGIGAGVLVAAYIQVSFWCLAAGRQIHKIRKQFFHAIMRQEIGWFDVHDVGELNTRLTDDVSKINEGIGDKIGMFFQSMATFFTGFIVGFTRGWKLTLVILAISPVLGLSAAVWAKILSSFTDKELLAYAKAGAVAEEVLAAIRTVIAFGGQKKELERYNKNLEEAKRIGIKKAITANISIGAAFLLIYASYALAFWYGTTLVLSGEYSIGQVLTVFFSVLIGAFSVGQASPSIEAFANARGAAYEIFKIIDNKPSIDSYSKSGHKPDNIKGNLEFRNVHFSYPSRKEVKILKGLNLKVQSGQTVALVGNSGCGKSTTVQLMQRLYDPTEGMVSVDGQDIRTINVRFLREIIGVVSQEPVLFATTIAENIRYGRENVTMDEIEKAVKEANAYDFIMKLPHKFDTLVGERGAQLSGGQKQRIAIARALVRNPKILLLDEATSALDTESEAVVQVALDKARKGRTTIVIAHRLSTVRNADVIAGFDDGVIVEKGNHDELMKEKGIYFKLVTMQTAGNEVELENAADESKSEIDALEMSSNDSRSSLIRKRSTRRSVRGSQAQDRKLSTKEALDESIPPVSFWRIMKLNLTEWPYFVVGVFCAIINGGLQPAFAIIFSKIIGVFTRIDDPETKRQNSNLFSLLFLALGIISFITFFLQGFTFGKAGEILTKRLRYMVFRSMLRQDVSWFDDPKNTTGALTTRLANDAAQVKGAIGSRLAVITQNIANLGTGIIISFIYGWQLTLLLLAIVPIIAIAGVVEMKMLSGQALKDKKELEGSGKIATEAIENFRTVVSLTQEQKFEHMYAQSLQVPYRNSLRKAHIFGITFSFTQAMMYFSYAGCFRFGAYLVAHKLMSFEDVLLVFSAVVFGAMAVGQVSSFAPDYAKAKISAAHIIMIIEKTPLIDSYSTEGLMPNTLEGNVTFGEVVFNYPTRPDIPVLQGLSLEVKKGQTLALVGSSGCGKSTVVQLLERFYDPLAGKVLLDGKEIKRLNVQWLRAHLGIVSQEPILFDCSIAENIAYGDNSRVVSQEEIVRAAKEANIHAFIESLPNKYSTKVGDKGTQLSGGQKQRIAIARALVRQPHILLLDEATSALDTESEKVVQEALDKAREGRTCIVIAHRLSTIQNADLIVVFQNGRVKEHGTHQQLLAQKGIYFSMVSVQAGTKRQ

As for `CC[N+](C)(CC)CCNC(=O)c1ccc(N=[N+]=[N-])cc1.[I-]` [AZIDOPROCAINAMIDE METHOIODIDE], the Activity entry in data set [1] and in data set [2] was “substrate [+]” in each case.
With `CCCC[N+](C)(CCCC)CCCC` [TRIBUTYLMETHYLAMMONIUM], the Activity result in data set [3], in data set [1] and in data set [2] was “substrate [+]” throughout.
For the compound `CC(=O)O[C@H]1C[C@@H]2CC[C@@H]3[C@H](CC[C@@]4(C)[C@H]3C[C@H]([N+]3(C)CCCCC3)[C@@H]4OC(C)=O)[C@@]2(C)C[C@@H]1N1CCCCC1` [VECURONIUM], the Activity result in data set [3], in data set [1] and in data set [2] was “substrate [+]” in each case.
Consider `CC[C@]1(O)C[C@@H]2CN(CCc3c([nH]c4ccccc34)[C@@](C(=O)OC)(c3cc4c(cc3OC)N(C)[C@H]3[C@@](O)(C(=O)OC)[C@H](OC(C)=O)[C@]5(CC)C=CCN6CC[C@]43[C@@H]65)C2)C1` [VINBLASTINE], for which the Activity entry in data set [4] is “inhibitor [+]”; in data set [3], “substrate [+]”; in data set [2] it was “substrate [+]”; in data set [5] it was “inhibitor [+]”; in data set [6], “inhibitor [+]”.
